“And” between values parts separate entries of the source, which are not always exact repeats. Identical values can stand only once. Like-named read-outs stand apart in the source and are kept apart here.
Legend:
[1] = Chronic treatment of mice: observations (mortality, hair colour, retina); type: in vivo; settings: APP51/16 mice, 100 μmol/kg p.o. once daily
[2] = Pharmacokinetics after i.v. and oral application, beagle dog
Description: (§2) Pharmacokinetic studies used male Sprague Dawley rats, C57BL6 mice and Beagle dogs, obtained from Charles River (France, rodents) and Marshall (Italy, dogs). […] Blood was collected i.v., by sublingual bleeding or at sacrifice whereas a serial blood sampling allowed obtaining individual PK profiles in these species. Blood samples were taken between 5 min (intravenous) and 15 min (oral) up to 24 h (mice), 48 h (rat) and 408 h (dog).
(§3) The absorption and disposition parameters were estimated by a non-compartmental analysis of the mean blood concentration (n = 3 mice) or individual concentration (rats, dogs) versus time profile after oral and intravenous administration.

[3] = test system: APP51/16 transgenic mice; experiment: Chronic 6-week treatment of APP51/16 mice: APP metabolites, Aβ deposition and neuroinflammation; type: in vivo, mouse; settings: relative to vehicle-treated mice
[4] = test system: wtAPP CHO cells; experiment: Release of APP metabolites from wild-type human APP751 CHO cells; settings: Cricetulus griseus, 24 h
[5] = Blood pharmacokinetics and brain penetration in the rat, 30 μmol/kg oral; type: in vivo; settings: for Cmax / AUC(0-t): male, Sprague Dawley, 30 umol/kg
Excerpt: In vivo blood pharmacokinetics and brain penetration was investigated in the rat.

[6] = Octanol/water distribution coefficient; type: physicochemical; settings: derived from apparent permeability across an artificial liquid membrane
Description: The octanol/water distribution coefficient was derived from the apparent permeability across an artificial liquid membrane. The PAMPA assay was done as described. MDCK cells overexpressing human p-glycoprotein (MDR1-MDCK cells, obtained from Prof. A. Berns, Netherlands Cancer Institute) were grown on HTS Multiwell plates, 1 μm pore size (Becton Dickinson). After formation of a tight monolayer, NB-360 was applied to either the upper or the lower chamber. After one hour, liquid was removed from the upper and lower chambers and analyzed by HPLC-MS. Apical-to-basolateral and basolateral-to-apical transport rates were calculated.

[7] = test system: Aβ40; experiment: Pre-plaque APP51/16 mice: brain Aβ40 after single or 4-day oral dosing; type: in vivo, mouse
Description: This strain of transgenic mice was selected since it resembles the situation in sporadic human AD, where no APP mutation is present. […] Next, we dosed the compound p.o. once daily for 4 days at 2 doses to pre-plaque APP51/16 mice (age: 8 months) in order to achieve steady state exposure, and measured the Aβ40 reduction 24 h after the last dose. […] In order to achieve a >50 % reduction of brain Aβ over a 24 h period in mice we selected this dose for a chronic study.
(§1) Frozen rodent forebrains were homogenized in 9 volumes of ice-cold Tris-buffered saline (pH 7.4) containing Complete protease inhibitor cocktail (Roche Diagnostics, Penzberg, Germany) using a Sonifier 450 (Branson) and stored in aliquots at -80 °C. Triton X-100 soluble Aβ was extracted by mixing 50 μl 2 % Triton X-100 with 50 μl homogenate, incubating for 15 min on ice with vortexing, followed by ultracentrifugation at 100000xg for 15 min. The clear supernatant was diluted to a final forebrain dilution of 1:100 and used for analysis. For the extraction of insoluble amyloid peptides, 50 μl forebrain homogenate was mixed with 117 μl of 100 % formic acid and stored on ice for 15 min with vortexing. Samples were neutralized with 950 μl 1 M Tris base, containing Complete protease inhibitor cocktail (Roche, Basle, Switzerland) and stored overnight at room temperature. The supernatant after 15 min centrifugation at 14000 rpm was used for analysis.
Aβ38, 40 and 42 were determined using the electro-chemiluminescence immuno assay kits from Meso Scale Discovery (Rockville, MD, USA) in either singlet or triplex format. Samples and standards were prepared according to the manufactures protocols. […] Soluble APPα and sAPPβ from APP51/16 mice were determined from the 100000xg supernatant and analyzed with Meso Scale Discovery commercial kits. C-terminal fragments C83 and C99 were determined from Western blots. […] After transfer to Immobilon P membranes (Bio-Rad Bedford MA USA), bands were probed with APP C8 antibody (recognizing the C-terminus of APP) and detected with goat anti-mouse IgG Fab fragment AlexaFluor680 (Invitrogen). […]

[8] = test system: Aβ40; experiment: Rat PK/PD study: Aβ40 in forebrain and CSF after oral dosing; type: in vivo; settings: for ED50: po, at 4 h, read-out: ED50 for inhibition of forebrain Aβ40
Description: Maximum activity was between 4 and 8 h, and Aβ40 concentrations returned to baseline after 24 h. Significant (>50 %) Aβ40 lowering was observed even at the lowest dose of 3 μmol/kg, and the effect saturated at higher doses.
as §1
Aβ38, 40 and 42 were determined using the electro-chemiluminescence immuno assay kits from Meso Scale Discovery (Rockville, MD, USA) in either singlet or triplex format. Samples and standards were prepared according to the manufactures protocols. The kit based on the antibody 4G8 was used for rat forebrain and CSF samples, and kits based on 6E10 were used for dog CSF or plasma and APP51/16 brain and CSF samples. Soluble APPα and sAPPβ from APP51/16 mice were determined from the 100000xg supernatant and analyzed with Meso Scale Discovery commercial kits. C-terminal fragments C83 and C99 were determined from Western blots. Forebrain homogenates dephosphorylated with lambda protein phosphatase as described and run on a 10 % Tris-bicine gel with 8 M urea. After transfer to Immobilon P membranes (Bio-Rad Bedford MA USA), bands were probed with APP C8 antibody (recognizing the C-terminus of APP) and detected with goat anti-mouse IgG Fab fragment AlexaFluor680 (Invitrogen). The same gel was used to visualize Aβ1-38, 1-40, and 1-42 using the N-terminal antibody beta1 and goat anti rabbit IgG IRdye 800CW (Odyssey). Full-length human APP was detected using an in house immunoassay based on the MSD ECL system as described.

[9] = Pharmacokinetics after i.v. and oral application, mouse
Description: as §2, §3

[10] = Dissociation constant (pKa); type: physicochemical

For `Cc1cc(C#N)cnc1C(=O)Nc1ccc(F)c([C@]2(C)CO[C@@](C)(C(F)(F)F)C(N)=N2)c1` [NB-360], which “first appearance of grey hair patches” value [1] is on record?
Its value is 2-3 weeks.

What about the mortality during treatment ([1]; 6 weeks) of the same compound?
Its mortality during treatment is “Two out of 17 mice in the treatment group died”.

What about the “Vol. of Distribution” value ([2]; 2 μmol/kg i.v.) of the same compound?
Its value is 0.9 L/kg.

And the clearance ([2]; Beagle, blood, iv, 2 umol/kg)?
The clearance was 0.4 mL/min/kg.

And the half-life ([2]; Beagle, blood, iv, 2 umol/kg)?
Its half-life is 36.2 h.

And the bioavailability ([2]; Beagle, blood, po, 2 umol/kg)?
Its bioavailability is 62%.

What about the “number of GFAP positive cell clusters in the cortex” value [3] of the same compound?
The value was “substantially lower”.

And the IC50 ([4]; read-out: IC50 Aβ40 release)?
Its IC50 is 3 nM.

What about the IC50 ([4]; read-out: IC50 Aβ42 release) of the same compound?
Its IC50 is 3 nM.

What about the IC50 ([4]; read-out: IC50 sAPPβ release) of the same compound?
The IC50 was 4 nM.

What about the “unbound AUC 0-24 h blood” value ([5]; blood, corrected for nonspecific binding) of the same compound?
The value was 0.63 µM·h.

What about the “unbound AUC 0-24 h brain” value ([5]; brain, corrected for nonspecific binding) of the same compound?
The value was 0.54 µM·h.

What about the Cmax ([5]; blood) of the same compound?
The Cmax was 1620 nM.

And the AUC(0-t) ([5]; blood, read-out: AUC 0-24 h blood)?
The AUC(0-t) was 10.2 µM·h.

And the Cmax ([5]; brain)?
Its Cmax is 4010 nM.

What about the AUC(0-t) ([5]; brain, read-out: AUC 0-24 h brain) of the same compound?
Its AUC(0-t) is 23.6 µM·h.

And the logP [6]?
The logP was 3.7.

What about the “lowering of TX-100 soluble brain Aβ40” value ([7]; pre-plaque APP51/16 mice (3-5 months), 30 μmol/kg single oral dose, 4 h) of the same compound?
Its value is 79.6%.

What about the “reduction of forebrain Aβ” value ([7]; pre-plaque APP51/16 mice (8 months), 30 μmol/kg/d p.o. 4 days, 24 h after last dose) of the same compound?
The value was 15.1%.

And the “Aβ40 reduction in forebrain” value ([7]; pre-plaque APP51/16 mice (8 months), 100 μmol/kg/d p.o. 4 days, 24 h after last dose)?
Its value is 52.1%.

And the Aβ40 inhibition ([8]; 30 μmol/kg p.o., 4 h)?
The Aβ40 inhibition was 90.9% and ~ 90%.

And the “Max effect (dose-response in brain)” value ([8]; based on 4 h data, Fig. 2d)?
The value was 91%.

And the Aβ40 lowering ([8]; lowest dose 3 μmol/kg p.o.)?
The Aβ40 lowering was greater than 50%.

What about the ED50 ([8]; converted dose) of the same compound?
The ED50 was 0.7 mg/kg.

What about the ED50 [8] of the same compound?
Its ED50 is 1.6 ± 0.25 µmol/kg.

And the clearance ([9]; C57BL6, mouse, blood, iv, 2 umol/kg)?
Its clearance is 16 mL/min/kg.

And the bioavailability ([9]; C57BL6, mouse, blood, po, 6 umol/kg)?
The bioavailability was 37%.

And the “Terminal half-life after i.v. application” value ([9]; mouse, 2 μmol/kg i.v.)?
The value was 3.6 h.

And the “Vol. of Distribution” value ([9]; mouse, 2 μmol/kg i.v.)?
The value was 4.6 L/kg.

What about the pKa [10] of the same compound?
The pKa was 7.1.
